From patent US12528812B2 (Genentech, Inc., priority 2020, dated 2026) come the findings set out here.

The target in experiment [1] is T1, recombinant human JAK1 kinase domain protein (Residues 854-1154) (Homo sapiens, UniProt P23458).
T1 construct: human JAK1 kinase domain protein (Residues 854-1154); purchased Proteros Biostructures GmbH (Martinsried, Germany); host or cells: insect cells
The experiment is described as follows: JAK1 biochemical assay (LabChip mobility shift, Ki). The note with it: read-out: Biochem JAK1 Ki.

For experiment [2], the system named is IL-13-stimulated STAT6 phosphorylation in human lung bronchial epithelial BEAS-2B cell line. Kind of experiment: P-STAT6 BEAS-2B + IL-13 cell assay. Format: cell-based. As to conditions: BEAS2B cells, IL13 stimulation, read-out: Cellular JAK1 PSTAT6 BEAS2B + IL13. The protocol: In order to study the effect of JAK1 inhibitors in a cell line that is relevant to the cell biology of human asthma, an IL-13-stimulated STAT6 phosphorylation assay in the human lung bronchial epithelial BEAS-2B cell line was developed.
BEAS-2B cells (ATCC′ CRL-9609™) were grown in Bronchial Epithelial Growth Medium (BEGM) (Lonza Catalog No. CC-3170; Walkersville, MD; or PromoCell Catalog No. C-21060; Heidelberg, Germany). Test compound stock solutions (0.5 mM in DMSO) were serially diluted 1:2 in DMSO to generate a 10-point concentration curve (at 500× test concentration), which was further diluted by a 50-fold dilution step in BEGM to generate a 10× concentration curve (in 2% DMSO). Cells were plated at 100,000 cells/well in 200 μL of BEGM in 96-well plates and incubated for 48 hours at 37° C. in a humidified incubator. Medium was aspirated from the cells and replaced with 70 μL of fresh BEGM. Diluted test compound (10 μL; or 2% DMSO in assay medium) was added to the cells, and the plates were incubated for 1 hour at 37° C. in a humidified incubator. Twenty μL of 250 ng/mL human recombinant IL-13 (Bio Techne Catalog No. 213-ILB) was then added to the cells and incubated for 15 minutes at 37° C. Medium was aspirated from the cells and 60 μL of ice-cold 1× cell lysis buffer (Cell Signaling Technologies; Catalog No. 9803S) containing 1 mM PMSF was added to the cells. Assay plates were incubated at −80° C. for at least 1 hour. P-STAT6 was measured by coating GAR plates (MSD; Catalog No. L45RA-1) with rabbit anti-human total STAT6 antibody (Cell Signaling Technologies; Catalog No. 9362S), incubating the cell lysates in the coated plates overnight at 4° C., and then detecting with mouse anti-phospho-STAT6 (Tyr641) Clone 16E12 antibody (Millipore; Catalog No. 05-590, custom labeled by MSD with SULFO-tag) using standard MSD plate processing, washing, and detection protocols. Plates were read on the MESO SECTOR 5600.
Data analysis was performed by subtracting negative control values from all wells and determining percent of control using the positive control values; the IC50 was determined with a four-parameter logistic fit model as shown in Equation 4.

The target of experiment [3] is Recombinant human JAK2 kinase domain protein (Residues 812-1132) (Homo sapiens, UniProt O60674). Kind of experiment: JAK2 biochemical assay (LabChip mobility shift, Ki). The note with it: Biochem JAK2 Ki.

Like-named read-outs stand apart in the source and are kept apart here.

T1 sequence (P23458 854-1154): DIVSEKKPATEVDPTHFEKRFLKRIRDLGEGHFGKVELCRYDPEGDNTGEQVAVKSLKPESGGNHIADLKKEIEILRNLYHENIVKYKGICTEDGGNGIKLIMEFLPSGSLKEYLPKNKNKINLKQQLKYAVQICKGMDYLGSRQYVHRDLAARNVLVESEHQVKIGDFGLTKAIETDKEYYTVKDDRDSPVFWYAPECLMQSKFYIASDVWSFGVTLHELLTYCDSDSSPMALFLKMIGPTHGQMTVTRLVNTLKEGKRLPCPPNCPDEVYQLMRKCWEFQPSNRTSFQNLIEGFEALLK
Chain of Recombinant human JAK2 kinase domain protein (Residues 812-1132) (O60674 812-1132): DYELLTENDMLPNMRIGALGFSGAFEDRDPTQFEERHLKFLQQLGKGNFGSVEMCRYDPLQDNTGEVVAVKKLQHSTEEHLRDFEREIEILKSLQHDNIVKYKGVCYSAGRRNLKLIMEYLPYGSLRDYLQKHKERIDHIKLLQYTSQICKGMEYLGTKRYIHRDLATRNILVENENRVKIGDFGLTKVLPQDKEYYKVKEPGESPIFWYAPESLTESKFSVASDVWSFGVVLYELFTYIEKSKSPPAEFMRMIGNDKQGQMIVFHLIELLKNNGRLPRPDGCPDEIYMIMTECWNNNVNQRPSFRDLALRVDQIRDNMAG

As a reminder, the Ki is a measure of affinity in units of concentration, obtained from inhibition or displacement. In the case of `CN(C)CCN1CC(O)(Cn2cc(Oc3ccc(OC(F)F)c(-c4nn(C)cc4NC(=O)c4cnn5cccnc45)c3)cn2)C1` [Example 198, N-[3-[2-(difluoromethoxy)-5-[1-[[1-[2-(dimethylamino)ethyl]-3-hydroxy-azetidin-3-yl]methyl]pyrazol-4-yl]oxy-phenyl]-1-methyl-pyrazol-4-yl]pyrazolo[1,5-a]pyrimidine-3-carboxamide], the Ki was 1.5 nM in experiment [1] and 0.83 nM in experiment [3]. The IC50 in experiment [2] (Homo sapiens, BEAS-2B) worked out at 1000 nM.

Turning to `CN1CCC[C@H]1Cn1cc(NC(=O)c2cnn3cccnc23)c(-c2cc(Oc3cccc(CC#N)c3)ccc2OC(F)F)n1` (racemic) [Example 37, N-[3-[5-[3-(cyanomethyl)phenoxy]-2-(difluoromethoxy)phenyl]-1-[[rac-(2R)-1-methylpyrrolidin-2-yl]methyl]pyrazol-4-yl]pyrazolo[1,5-a]pyrimidine-3-carboxamide], the Ki in experiment [1] was found to be 0.55 nM; in experiment [3], 1.4 nM. Moreover, in experiment [2] (Homo sapiens, BEAS-2B), the IC50 came to 16 nM.

Take `Cn1cc(NC(=O)c2cnn3cccnc23)c(-c2cc(Oc3cnn(C4CCNCC4O)c3)ccc2OC(F)F)n1` (stereo not drawn) [Example 183, N-[3-[2-(difluoromethoxy)-5-[1-(3-hydroxy-4-piperidyl)pyrazol-4-yl]oxy-phenyl]-1-methyl-pyrazol-4-yl]pyrazolo[1,5-a]pyrimidine-3-carboxamide]: the Ki came out at 0.41 nM in experiment [1] and 0.22 nM in experiment [3]. Moreover, in experiment [2], the IC50 is 150 nM.

For `CN(C)C1CCN(C(=O)c2cccc(Oc3ccc(OC(F)F)c(-c4nn(C)cc4NC(=O)c4cnn5cccnc45)c3)c2)C1` (racemic) [Example 211, N-[3-[2-(difluoromethoxy)-5-[3-[rac-(3S)-3-(dimethylamino)pyrrolidine-1-carbonyl]phenoxy]phenyl]-1-methyl-pyrazol-4-yl]pyrazolo[1,5-a]pyrimidine-3-carboxamide], the Ki stood at 0.98 nM in experiment [1] and 0.58 nM in experiment [3]. In addition, in experiment [2] (Homo sapiens, BEAS-2B), the IC50 was found to be 54 nM.

As to `CN1CCCC1Cn1cc(NC(=O)c2cnn3cccnc23)c(-c2cc(Oc3cccc(C4CNCCO4)c3)ccc2OC(F)F)n1` (racemic) [Example 41, N-[3-[2-(difluoromethoxy)-5-(3-morpholin-2-ylphenoxy)phenyl]-1-[[rac-(2R)-1-methylpyrrolidin-2-yl]methyl]pyrazol-4-yl]pyrazolo[1,5-a]pyrimidine-3-carboxamide], the Ki in experiment [1] was found to be 1.4 nM; in experiment [3], 4.4 nM. Further, the IC50 in experiment [2] (Homo sapiens, BEAS-2B) came out at 210 nM.

For the compound `NCc1cccc(Oc2ccc(OC(F)F)c(-c3n[nH]cc3NC(=O)c3cnn4cccnc34)c2)c1` [Example 6, N-[3-[5-[3-(aminomethyl)phenoxy]-2-(difluoromethoxy)phenyl]-1H-pyrazol-4-yl]pyrazolo[1,5-a]pyrimidine-3-carboxamide], the Ki came out at 0.23 nM in experiment [1] and 0.2 nM in experiment [3]. Moreover, the IC50 in experiment [2] (Homo sapiens, BEAS-2B) is 11 nM.

Consider `Cn1cc(NC(=O)c2cnn3cccnc23)c(-c2cc(Oc3cnn(C4CNC4)c3)ccc2OC(F)F)n1` [Example 116, N-[3-[5-[l-(azetidin-3-yl)pyrazol-4-yl]oxy-2-(difluoromethoxy)phenyl]-1-methyl-pyrazol-4-yl]pyrazolo[1,5-a]pyrimidine-3-carboxamide], for which the Ki in experiment [1] was found to be 1.5 nM; in experiment [3], 0.84 nM. Also, the IC50 in experiment [2] (Homo sapiens, BEAS-2B) was determined as 95 nM.

As for `Cn1cc(NC(=O)c2cnn3cccnc23)c(-c2cc(Oc3ccc(CN4CC[C@@H](CO)C4)cc3)ccc2OC(F)F)n1` (racemic) [Example 172, N-[3-[2-(difluoromethoxy)-5-[4-[[rac-(3R)-3-(hydroxymethyl)pyrrolidin-1-yl]methyl]phenoxy]phenyl]-l-methyl-pyrazol-4-yl]pyrazolo[1,5-a]pyrimidine-3-carboxamide], the Ki amounted to 6.2 nM in experiment [1] and 1.4 nM in experiment [3]. Besides, the IC50 in experiment [2] (Homo sapiens, BEAS-2B) was found to be 150 nM.

Turning to `CN1CC(O)(c2cc(Oc3ccc(OC(F)F)c(-c4nn(C)cc4NC(=O)c4cnn5cccnc45)c3)ccc2F)C1` [Example 104, N-[3-[2-(difluoromethoxy)-5-[4-fluoro-3-(3-hydroxy-1-methyl-azetidin-3-yl)phenoxy]phenyl]-1-methyl-pyrazol-4-yl]pyrazolo[1,5-a]pyrimidine-3-carboxamide], the Ki in experiment [1] amounted to 0.73 nM; in experiment [3], 0.75 nM. For the same compound, the IC50 in experiment [2] (Homo sapiens, BEAS-2B) came to 45 nM.

Take `Cn1cc(NC(=O)c2cnn3cccnc23)c(-c2cc(Oc3cnn(CCN4CCOCC4)c3)ccc2OC(F)F)n1` [Example 68, N-[3-[2-(difluoromethoxy)-5-[1-(2-morpholinoethyl)pyrazol-4-yl]oxy-phenyl]-1-methyl-pyrazol-4-yl]pyrazolo[1,5-a]pyrimidine-3-carboxamide]: the Ki was determined as 6.2 nM in experiment [1] and 2.9 nM in experiment [3].

`Cc1cc(Oc2ccc(OC(F)F)c(-c3nn(C)cc3NC(=O)c3cnn4cccnc34)c2)cc(C2(O)CN(C)C2)c1` [Example 102, N-[3-[2-(difluoromethoxy)-5-[3-(3-hydroxy-1-methyl-azetidin-3-yl)-5-methyl-phenoxy]phenyl]-1-methyl-pyrazol-4-yl]pyrazolo[1,5-a]pyrimidine-3-carboxamide]: the Ki in experiment [1] was 0.44 nM; in experiment [3], 0.43 nM. The IC50 in experiment [2] (Homo sapiens, BEAS-2B) is 24 nM.

Take `Cn1cc(NC(=O)c2cnn3cccnc23)c(-c2cc(Oc3cnn(CCBr)c3)ccc2OC(F)F)n1` [Example 214, N-[3-[5-[1-(2-bromoethyl)pyrazol-4-yl]oxy-2-(difluoromethoxy)phenyl]-1-methyl-pyrazol-4-yl]pyrazolo[1,5-a]pyrimidine-3-carboxamide]: the Ki in experiment [1] came to 1.1 nM; in experiment [3], 0.68 nM.

For the compound `CCCN(CCCO)Cc1ccc(Oc2ccc(OC(F)F)c(-c3nn(C)cc3NC(=O)c3cnn4cccnc34)c2)cc1` [Example 161, N-(3-(2-(difluoromethoxy)-5-(4-(((3-hydroxypropyl) (propyl)amino)methyl)phenoxy)phenyl)-1-methyl-1H-pyrazol-4-yl)pyrazolo[1,5-a]pyrimidine-3-carboxamide], the values for the Ki in experiment [1] and in experiment [3] were 6 nM and 2.2 nM, respectively.

`CNC(=O)c1cncc(Oc2ccc(OC(F)F)c(-c3nn(C)cc3NC(=O)c3cnn4cccnc34)c2)c1` [Example 158, N-[3-[2-(difluoromethoxy)-5-[[5-(methylcarbamoyl)-3-pyridyl]oxy]phenyl]-1-methyl-pyrazol-4-yl]pyrazolo[1,5-a]pyrimidine-3-carboxamide]: the inhibition constant Ki in experiment [1] stood at 0.62 nM. For the same compound, the IC50 in experiment [2] (Homo sapiens, BEAS-2B) worked out at 37 nM.

As to `O=C(Nc1c[nH]nc1-c1cc(Oc2ccccc2)ccc1OC(F)F)c1cnn2cccnc12` [Example 1, N-[3-[2-(difluoromethoxy)-5-phenoxy-phenyl]-1H-pyrazol-4-yl]pyrazolo[1,5-a]pyrimidine-3-carboxamide], the figures for the Ki in experiment [1] and in experiment [3] were 0.18 nM and 0.096 nM, respectively.

In the case of `Cn1cc(NC(=O)c2cnn3cccnc23)c(-c2cc(Oc3cnn(CCC4CO4)c3)ccc2OC(F)F)n1` (stereo not drawn) [Example 215, N-[3-[2-(difluoromethoxy)-5-[1-[2-(oxiran-2-yl)ethyl]pyrazol-4-yl]oxy-phenyl]-1-methyl-pyrazol-4-yl]pyrazolo[1,5-a]pyrimidine-3-carboxamide], the Ki is 1.9 nM in experiment [1] and 1.1 nM in experiment [3].
